These results are taken from article PMC10097024, “Cytotoxic and Antibacterial Prenylated Acylphloroglucinols from Hypericum olympicum L” (Plants, 2023).

Values joined by “and” are separate entries in the source; they are usually repeats but may differ in a detail not shown here. Equal entries are not always repeated. Where two headings read alike, the source gives them in different places.

The test system of experiment [1] is Staphylococcus aureus—MRSA (NBIMCC 8327). As to the kind of experiment: MIC by broth microdilution. It is filed as cell-based. From the text: (§1) The Gram-positive bacterial strains that were examined for susceptibility were: Staphylococcus aureus (ATCC 29213, American Type Cell Culture Collection, Manassas, VA, USA), Staphylococcus aureus—MRSA (NBIMCC 8327-resistant to methicillin and oxacillin, National Bulgarian Collection for Industrial Microorganisms and Cell Cultures, Sofia, Bulgaria), Enterococcus faecalis (ATCC 29212) and Streptococcus pyogenes (SAIMC 10535, Collection of the Stephan Angeloff Institute of Microbiology, Sofia, Bulgaria). The only Gram-negative bacterial strain used was Escherichia coli (ATCC 35218). Bacteria were maintained in Trypticase Soy Broth (TSB, Himedia, India) at 37 °C, aerobic conditions. For the experiments brain heart infusion (BHI) broth (#M210 HiMedia, Mumbai, India) was used for E. faecalis and S. pyogenes and Mueller Hinton broth (MHB, #M0405B) from Thermo Scientific-Oxoid (Basingstoke, UK)—for all other strains.
(§2) BMD was performed according to the following protocol of ISO 20776/1-2006 [117]. A bacterial suspension with density of 10^8 CFU/mL (0.5 McFarland standard, OD600) was prepared from an overnight grown liquid bacterial culture homogenized over vortex and brought to a working bacterial suspension (WBS) with concentration of 5×10^5 CFU/mL by being diluted 200× with MHB or BHI broth and homogenized over vortex again. Two-fold serial dilutions of compounds 3–5 was prepared in 96-well round bottom plates to a volume of 50 μL and final range of concentrations 100–0.2 μg/mL. Stock solutions were dissolved in ethanol and MHB was used as diluent and as test for absence of contamination. Three wells were left as blank samples and 6 wells were left for control samples. An equivalent volume (50 μL) of the WBS was inoculated to each well in the aforementioned plates achieve final bacterial density of […] with the exception of the blank wells. After 18–24 h incubation under aerobic standardized conditions at 37 °C the plates were examined. […] Antibiotics dissolved in sterile distilled water were used as referent positive controls. They were penicillin G (PEN, #B0500000, Merck KGaA, Darmstadt, Germany) for E. faecalis and S. pyogenes, gentamicin (GEN, #15750-037, 50 mg/mL, Gibco, Paisley, UK) for all bacteria except S. pyogenes and ciprofloxacin (CIP, Ciproflav:10 mg/mL, Polfa S.A. Warsaw Pharmaceutical Works, Starogard Gdanski, Poland) for E. faecalis. The range of concentrations were 0.004–2 mg/L for PEN, 0.008–4 mg/L for GEN and 0.005–2 mg/L for CIP. The requirements of EUCAST (European Committee on Antimicrobial Susceptibility Testing) for their MICs were followed for discussing the results. In the end the plates which contained active agents were subjected to assessment of the dehydrogenase activity of the bacteria.
In general terms: In broth dilution the organism is exposed to a series of concentrations in liquid medium.

Experiment [2] deals with Staphylococcus aureus (ATCC 29213). As to the kind of experiment: MIC by broth microdilution. The format is cell-based.
From the text: as §1, §2

Experiment [3] relates to Streptococcus pyogenes (SAIMC 10535). As to the kind of experiment: MIC by broth microdilution. It is filed as cell-based.
From the text: as §1, §2

For experiment [4], the system named is Enterococcus faecalis (ATCC 29212). As to the kind of experiment: MIC by broth microdilution. It is filed as cell-based.
From the text: as §1, §2

The test system of a further experiment is MRSA biofilm. The experiment in a line: Biofilm assay of MRSA. The note with it: for Absorbance at 550 nm of the MRSA biofilm (crystal violet): replicate wells; for IC50: read-out: MBIC50 (median biofilm inhibitory concentration). It is filed as cell-based, Staphylococcus aureus.
From the text: as §1
The bacterial inoculum was prepared as described above for the BMD. […] After that an optimized protocol was applied for the visualization of the biofilm. Firstly, the supernatant was removed, and planktonic cells were removed by washing the wells carefully 3× with 200 μL/well PBS. Then, fixing of the remaining cells was performed by incubation with 200 μL/well methanol for 15 sec at room temperature. The methanol was removed and the plate was dried by air for 5–10 s. Next, 50 μL of 2% Hucker crystal violet was poured into the wells and excess stain was rinsed off by running tap water. After that, the cells were air dried and the biofilm formation in the wells was documented microscopically (40×, Inverted trinocular biological microscope model BIB-100 and digital camera B-CAM16, application software B-View, Boeco, Hamburg, Germany). Then the dye bound to biofilm in the wells was re-solubilized with 160 μL 33% acetic acid and the absorbance of each well was measured at 550 nm with lid (Table S1 in Supplementary Materials). […] MBIC were assessed visually and MBIC50 were calculated by GraphPad Prism software with a mathematical model for a dose–response relationship (variable slope) after normalization of the data and logarithmic transformation of the applied concentrations (X-data).

The mark [5] stands for this setting: MRSA biofilm, assessed visually.
Setting [6] is: Staphylococcus aureus, MRSA biofilm, interval in brackets.
[7] abbreviates: MRSA biofilm, interval in brackets.

In the case of `CC(C)=CCC[C@]1(C)[C@@H](CC=C(C)C)C[C@]2(C)C(=O)C(CC=C(C)C)=C(O)[C@@]1(C(=O)C(C)C)C2=O` [Compound 3, hyperpolyphyllirin/hyperibine J], the MIC (usually the lowest concentration found to suppress growth) is 8 µg/mL and 16.6 µM in experiment [1] (read-out: MIC); 2.00 mg/L in experiment [2]; 4.14 µM in experiment [2] (read-out: MIC); 31 µg/mL and 64.2 µM in experiment [3] (read-out: MIC); 8 µg/mL and 16.6 µM in experiment [4] (ATCC29212, read-out: MIC). Besides, the “Absorbance at 550 nm of the MRSA biofilm (crystal violet)” value (from here on “Absorbance at 550 nm”) is 0.347 and 0.336 with MRSA biofilm (0.125 mg/L); 0.376 and 0.403 in the experiment on MRSA biofilm (0.25 mg/L); 0.276 and 0.394 in the experiment with MRSA biofilm (0.5 mg/L); 0.249 and 0.184 with MRSA biofilm (1 mg/L); 0.353 and 0.444 in the experiment on MRSA biofilm (2 mg/L); 0.110 and 0.099 with MRSA biofilm (4 mg/L). The compound also showed an MBIC with MRSA biofilm (MRSA biofilm) of 4 mg/L. Further, the “MBIC (minimum biofilm inhibitory concentration)” value was 8.29 µM in the experiment with MRSA biofilm (MRSA biofilm) and 4.0 mg/L in the experiment with MRSA biofilm (setting [5]). In addition, the IC50 in the experiment with MRSA biofilm (setting [6]) is 0.17 µg/mL and 350 nM.
Turning to `CC(C)=CCC[C@]1(C)[C@@H](CC=C(C)C)C[C@H]2C(=O)[C@]1(C(=O)C(C)C)C(=O)C(CC=C(C)C)=C2O` [Compound 5, (1S,5R,7S,8R)-4-hydroxy-1-isobutyryl-8-methyl-3,7-bis(3-methylbut-2-en-1-yl)-8-(4-methylpent-3-en-1-yl)bicyclo[3.3.1]non-3-ene-2,9-dione], the MIC in experiment [1] is 1.00 mg/L; in experiment [1] (read-out: MIC) it was 1 µg/mL and 2.14 µM; in experiment [2], 1.00 mg/L; in experiment [2] (ATCC29213, Staphylococcus aureus, read-out: MIC), 0.78 µg/mL to 2 µg/mL and 1.57 µM to 4.14 µM; in experiment [2] (read-out: MIC), 2.14 µM; in experiment [3] (read-out: MIC), 4 µg/mL and 8.53 µM. The MIC in experiment [4] (ATCC29212, read-out: MIC) is 4 µg/mL and 8.53 µM. Further, the “Absorbance at 550 nm” value in the experiment with MRSA biofilm (0.063 mg/L) is 0.978 and 1.044; with MRSA biofilm (0.125 mg/L), 0.926 and 0.790; with MRSA biofilm (0.25 mg/L) it was 0.592 and 0.502; in the experiment with MRSA biofilm (0.5 mg/L) it was 0.534 and 0.342; in the experiment on MRSA biofilm (1 mg/L), 0.332 and 0.406. Moreover, the MBIC in the experiment with MRSA biofilm (MRSA biofilm) is 0.5 mg/L. Further, the “MBIC (minimum biofilm inhibitory concentration)” value is 1.07 µM in the experiment on MRSA biofilm (MRSA biofilm) and 0.5 mg/L with MRSA biofilm (setting [5]). For the same compound, the IC50 with MRSA biofilm (setting [6]) was 0.05 µg/mL and 120 nM.
Turning to “(1R,5R,7S,8R)-4-hydroxy-5,8-dimethyl-3,7-bis(3-methylbut-2-en-1-yl)-1-(2-methylbutanoyl)-8-(4-methylpent-3-en-1-yl)bicyclo[3.3.1]non-3-ene-2,9-dione [Compound 4]”, the MIC in experiment [1] is 12.5 mg/L; in experiment [1] (read-out: MIC), 25.17 µM; in experiment [2], 0.78 mg/L; in experiment [2] (read-out: MIC), 1.57 µM; in experiment [3], 12.50 mg/L; in experiment [3] (read-out: MIC), 25.17 µM. In addition, the MIC in experiment [4] was 12.5 mg/L; in experiment [4] (read-out: MIC), 25.17 µM. Also, the “Absorbance at 550 nm” value was 0.324 and 0.229 and 0.230 with MRSA biofilm (0.78 mg/L); 0.248 and 0.194 and 0.193 with MRSA biofilm (1.56 mg/L); 0.264 and 0,195 and 0,139 in the experiment with MRSA biofilm (3.13 mg/L); 0.184 and 0.121 and 0.092 in the experiment with MRSA biofilm (6.25 mg/L); 0.152 and 0.150 and 0.072 in the experiment on MRSA biofilm (12.5 mg/L). Besides, the “MBIC (minimum biofilm inhibitory concentration)” value was 25.17 µM in the experiment with MRSA biofilm (MRSA biofilm) and 12.5 mg/L in the experiment on MRSA biofilm (setting [5]). In addition, the “MBIC50 (median biofilm inhibitory concentration)” value in the experiment with MRSA biofilm (setting [7]) is on record as 0.67 (0.39 to 1.17) mg/L. For the same compound, the IC50 in the experiment on MRSA biofilm (setting [7]) stood at 1.35 µM.
